Measurements as given in patent US8999981B2, “3-amido-pyrrolo[3,4-C]pyrazole-5(1H, 4H,6H) carbaldehyde derivatives” (Pfizer Inc., priority 2007, dated 2015).

Target: Protein Kinase C beta 2 (PKCβII) (Homo sapiens (Human), UniProt P05771)
Assay: PKCβII coupled PK/LDH spectrophotometric kinase assay
Format: biochemical
Details: apparent Ki, ATP-competitive model (Morrison equation); 0.1 mM ATP, 30° C.; read-out: PKCb Ki

Sequence of Protein Kinase C beta 2 (PKCβII) (P05771 other isoform, or with tags, fused parts or gaps): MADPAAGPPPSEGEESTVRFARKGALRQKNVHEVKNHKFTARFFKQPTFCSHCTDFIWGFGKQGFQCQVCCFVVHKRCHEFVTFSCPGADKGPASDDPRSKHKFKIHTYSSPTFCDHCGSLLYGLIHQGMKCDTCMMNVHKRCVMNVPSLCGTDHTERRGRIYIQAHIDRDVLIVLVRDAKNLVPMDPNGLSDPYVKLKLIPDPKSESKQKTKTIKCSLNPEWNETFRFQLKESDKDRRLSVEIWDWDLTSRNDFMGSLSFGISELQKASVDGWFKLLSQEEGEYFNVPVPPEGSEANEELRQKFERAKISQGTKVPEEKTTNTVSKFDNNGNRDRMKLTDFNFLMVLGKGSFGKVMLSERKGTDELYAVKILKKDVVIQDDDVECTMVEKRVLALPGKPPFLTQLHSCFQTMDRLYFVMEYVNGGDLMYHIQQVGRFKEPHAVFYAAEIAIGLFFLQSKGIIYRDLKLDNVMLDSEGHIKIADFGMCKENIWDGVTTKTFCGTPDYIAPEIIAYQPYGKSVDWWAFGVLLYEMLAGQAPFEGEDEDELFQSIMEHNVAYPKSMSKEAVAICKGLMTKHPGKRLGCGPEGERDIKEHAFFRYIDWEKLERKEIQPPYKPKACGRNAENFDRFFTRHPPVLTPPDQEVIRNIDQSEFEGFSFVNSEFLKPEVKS

C[C@@H]1CN(C(=O)N2Cc3c(NC(=O)c4ccc(C#N)cn4)n[nH]c3C2(C)C)[C@@H](C)CN1CC1CCOCC1 [Example G3]
Ki: < 10 nM
